Assay results: US20260250257A1, “ANTIBACTERIAL AND SYNERGISTIC ACTIVE COMPOUND AND USE THEREOF” (EAST CHINA UNIVERSITY OF SCIENCE AND TECHNOLOGY, priority 2023, published 2026)
≈ marks a conversion by molar mass, not a printed value.

What was measured:
Assay type in all cases: cell-based
[1] = tested on: ATCC25922 strain (Escherichia coli); assay: Checkerboard antibacterial synergistic activity test with polymyxin E (FIC); design: key: FIC≤0.5 synergy; 0.5–1 additive; 1–2 indifferent; ≥2 antagonism; settings: combined with polymyxin E
Procedure, shortened: (§1)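 Polymyxin E was diluted in MH broth to 16–0.015 μg/ml and the test compound to 256–4 μg/ml (two-fold series, pre-mixing concentrations), combined checkerboard-style in 96-well plates with bacterial suspension and blank controls, and incubated at 37° C. for 16 h. FIC ≤0.5 was scored synergistic, >0.5 to <1 additive, 1–2 indifferent, ≥2 antagonistic.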

[2] = tested on: ATCC19606 strain (Acinetobacter baumannii); assay: as above; design: key: FIC≤0.5 synergy; 0.5–1 additive; 1–2 indifferent; ≥2 antagonism; settings: combined with polymyxin E
Procedure, shortened: as §1

[3] = tested on: ATCC13883 strain (Klebsiella pneumoniae); assay: as above; design: key: FIC≤0.5 synergy; 0.5–1 additive; 1–2 indifferent; ≥2 antagonism; settings: combined with polymyxin E
Procedure, shortened: as §1

[4] = tested on: ATCC9027 strain (Pseudomonas aeruginosa); assay: as above; design: key: FIC≤0.5 synergy; 0.5–1 additive; 1–2 indifferent; ≥2 antagonism; settings: combined with polymyxin E
Procedure, shortened: as §1

[5] = tested on: ATCC25922 strain (Escherichia coli); assay: Broth microdilution, antibacterial activity of the compound used alone
From the text: (§2) The broth microdilution method was used to test the antibacterial effects of the compounds of the present invention against various Gram-negative bacterial strains when used alone.

[6] = tested on: ATCC19606 strain (Acinetobacter baumannii); assay: as above
From the text: as §2

[7] = tested on: ATCC13883 strain (Klebsiella pneumoniae); assay: as above
From the text: as §2

[8] = tested on: ATCC9027 strain (Pseudomonas aeruginosa); assay: as above
From the text: as §2

Row | Structure (SMILES) | Synergistic activity (FIC value) ATCC25922 [1] | Synergistic activity (FIC value) ATCC19606 [2] | Synergistic activity (FIC value) ATCC13883 [3] | Synergistic activity (FIC value) ATCC9027 [4] | Antibacterial activity of the compound of Formula I, ATCC25922 [5] [µg/mL] | Antibacterial activity of the compound of Formula I, ATCC19606 [6] [µg/mL] | Antibacterial activity of the compound of Formula I, ATCC13883 [7] [µg/mL] | Antibacterial activity of the compound of Formula I, ATCC9027 [8] [µg/mL] | MIC ([5]; read-out: Antibacterial activity of the compound of Formula I, ATCC25922) [µg/mL] | MIC ([6]; read-out: Antibacterial activity of the compound of Formula I, ATCC19606) [µg/mL] | MIC ([7]; read-out: Antibacterial activity of the compound of Formula I, ATCC13883) [µg/mL] | MIC ([8]; read-out: Antibacterial activity of the compound of Formula I, ATCC9027) [µg/mL]
1 | Cc1ccccc1Oc1ccccc1-c1nc(N=C2NCCCN2)oc1Cl [Compound I-142] | 0.14 | 0.31 | 0.09 | 0.06 | 256 | 256 | 256 | 256 | – | – | – | –
2 | Cc1ccc(Oc2ccccc2-c2csc(NC3=NCCCN3)n2)c(C)c1 [Compound I-143] | 0.04 | 0.38 | 0.19 | 0.04 | – | – | – | – | 256 (≈ 676 µM) | 256 (≈ 676 µM) | 256 (≈ 676 µM) | 256 (≈ 676 µM)
3 | COc1ccc(Oc2ccccc2-c2nc(N=C3NCCCN3)sc2C)c(C)c1 [Compound I-144] | 0.18 | 0.03 | 0.16 | 0.28 | 256 | 256 | 256 | 256 | – | – | – | –
4 | Cc1sc(N=C2NCCCN2)nc1-c1ccccc1Oc1ccccc1Cl [Compound I-145] | 0.2 | 0.04 | 0.13 | 0.28 | 256 | 256 | 256 | 256 | – | – | – | –
5 | Clc1ccc(Oc2ccccc2-c2c[nH]c(N=C3NCCCN3)n2)c(Cl)c1 [Compound I-146] | 0.14 | 0.31 | 0.09 | 0.06 | 256 | 256 | 256 | 256 | – | – | – | –
6 | Ic1ccccc1Oc1ccccc1-c1csc(N=C2NCCCN2)n1 [Compound I-147] | 0.18 | 0.03 | 0.16 | 0.28 | 128 | 256 | 128 | 64 | – | – | – | –
7 | Clc1sc(N=C2NCCCN2)nc1-c1ccccc1Oc1ccc(I)cc1I [Compound I-148] | 0.14 | 0.31 | 0.09 | 0.06 | 256 | 256 | 256 | 256 | – | – | – | –
8 | COc1ccc(Oc2ccccc2-c2csc(N=C3NCCCN3)n2)c(OC)c1 [Compound I-149] | 0.18 | 0.03 | 0.16 | 0.28 | 256 | 256 | 256 | 256 | – | – | – | –
9 | Clc1ccc(Oc2cc(Cl)ccc2-c2c[nH]c(N=C3NCCCN3)n2)c(Cl)c1 [Compound I-150] | 0.14 | 0.31 | 0.09 | 0.06 | 256 | 256 | 256 | 256 | – | – | – | –
10 | Fc1ccc(-c2csc(N=C3NCCCN3)n2)c(Oc2ccc(Cl)cc2Cl)c1 [Compound I-151] | 0.18 | 0.03 | 0.16 | 0.28 | 256 | 256 | 256 | 256 | – | – | – | –
11 | Cc1ccccc1Oc1cccc(-c2coc(N=C3NCCCN3)n2)c1 [Compound I-152] | 0.04 | 0.38 | 0.19 | 0.04 | 256 | 256 | 256 | 256 | – | – | – | –
12 | Cc1ccc(Oc2cccc(-c3csc(N=C4NCCCN4)n3)c2)c(C)c1 [Compound I-153] | 0.14 | 0.31 | 0.09 | 0.06 | 256 | 256 | 256 | 256 | – | – | – | –
13 | COc1ccc(Oc2cccc(-c3csc(N=C4NCCCN4)n3)c2)c(C)c1 [Compound I-154] | 0.04 | 0.38 | 0.19 | 0.04 | 256 | 256 | 256 | 256 | – | – | – | –
14 | CS(=O)(=O)c1ccc(Oc2ccccc2Cl)cc1-c1nc(N=C2NCCCN2)sc1Cl [Compound I-155] | 0.18 | 0.03 | 0.16 | 0.28 | 128 | 256 | 128 | 64 | – | – | – | –
15 | Oc1cc(Oc2ccc(Cl)cc2Cl)cc(-c2csc(N=C3NCCCN3)n2)c1 [Compound I-156] | 0.2 | 0.04 | 0.13 | 0.28 | 256 | 256 | 256 | 256 | – | – | – | –
